For `CCc1ccc(C(O)COc2ccc(C=O)cc2)nc1` (stereo not shown) [Compound 9a, 4-[2-(5-Ethyl-pyridin-2-yl)-2-hydroxy-ethoxy]-benzaldehyde], which melting point is on record?
The melting point was 83 °C.
